Test results taken from PubChem BioAssay AID1963831 (Molecular Pharmacology Branch, DTP, NCI, 2024).

Test system: 889142-216-R-J1-PDC complex spheroid viability
Experiment: Anticancer human tumor 889142-216-R-J1-PDC patient-derived bladder carcinoma cell line growth inhibition [POLQ]
Details: for IC50: curve of first compound; for viability, T/C: stronger effect = lower value
In short: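 PDC + HUVEC + MSC complex spheroids; POLQ inhibitors ± partner drugs; top conc. at/near clinical Cmax, else 10 microM (SN-38 1 microM), half-log dilutions; 37 degrees C, 5% CO2.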

[1] = second compound 0.0316 µM, first compound 0.00316 µM
[2] = second compound 0.0316 µM, first compound 0.01 µM
[3] = second compound 0.0316 µM, first compound 0.0316 µM
[4] = second compound 0.0316 µM, first compound 0.1 µM
[5] = second compound 0.0316 µM, first compound 0.316 µM
[6] = second compound 0.0316 µM, first compound 1 µM
[7] = second compound 0.1 µM, first compound 0.00316 µM
[8] = second compound 0.1 µM, first compound 0.01 µM
[9] = second compound 0.1 µM, first compound 0.0316 µM
[10] = second compound 0.1 µM, first compound 0.1 µM
[11] = second compound 0.1 µM, first compound 0.316 µM
[12] = second compound 0.1 µM, first compound 1 µM
[13] = second compound 0.316 µM, first compound 0.00316 µM
[14] = second compound 0.316 µM, first compound 0.01 µM
[15] = second compound 0.316 µM, first compound 0.0316 µM
[16] = second compound 0.316 µM, first compound 0.1 µM
[17] = second compound 0.316 µM, first compound 0.316 µM
[18] = second compound 0.316 µM, first compound 1 µM
[19] = second compound 1 µM, first compound 0.00316 µM
[20] = second compound 1 µM, first compound 0.01 µM
[21] = second compound 1 µM, first compound 0.0316 µM
[22] = second compound 1 µM, first compound 0.1 µM
[23] = second compound 1 µM, first compound 0.316 µM
[24] = second compound 1 µM, first compound 1 µM
[25] = second compound 3.16 µM, first compound 0.00316 µM
[26] = second compound 3.16 µM, first compound 0.01 µM
[27] = second compound 3.16 µM, first compound 0.0316 µM
[28] = second compound 3.16 µM, first compound 0.1 µM
[29] = second compound 3.16 µM, first compound 0.316 µM
[30] = second compound 3.16 µM, first compound 1 µM
[31] = second compound 10 µM, first compound 0.00316 µM
[32] = second compound 10 µM, first compound 0.01 µM
[33] = second compound 10 µM, first compound 0.0316 µM
[34] = second compound 10 µM, first compound 0.1 µM
[35] = second compound 10 µM, first compound 0.316 µM
[36] = second compound 10 µM, first compound 1 µM
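Further: spheroids exposed to compounds for seven days.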
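Wherever viability, T/C is given: 100% = DMSO vehicle control viability.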

With `C=CCn1c(=O)c2cnc(Nc3ccc(N4CCN(C)CC4)cc3)nc2n1-c1cccc(C(C)(C)O)n1` + Nc1ccc(C#CCN(C(=O)Cc2ncc(C(F)(F)F)cc2C(F)(F)F)c2ccc(F)cc2)nn1 the IC50 (second compound 0.0316 µM) was over 1000 nM, the IC50 (second compound 0.1 µM) was over 1000 nM and the IC50 (second compound 0.316 µM) was over 1000 nM. It also gave an IC50 (second compound 1 µM) of over 1000 nM, an IC50 (second compound 3.16 µM) of over 1000 nM and an IC50 (second compound 10 µM) of over 1000 nM. For the same compound, the viability, T/C [1] was 113%, the viability, T/C [2] was 118% and the viability, T/C [3] was 88.4%. For the same compound, the viability, T/C [4] was 87.2%, the viability, T/C [5] was 74.8% and the viability, T/C [6] was 58.2%. It also gave a viability, T/C [7] of 114%, a viability, T/C [8] of 119% and a viability, T/C [9] of 108%. The viability, T/C [10] was 85.1%, the viability, T/C [11] was 64.5% and the viability, T/C [12] was 56.2%. The viability, T/C [13] was 106%, the viability, T/C [14] was 79.1% and the viability, T/C [15] was 78%. The viability, T/C [16] was 80.7%, the viability, T/C [17] was 72.5% and the viability, T/C [18] was 62.4%. The viability, T/C [19] was 101%, the viability, T/C [20] was 83.8% and the viability, T/C [21] was 99.4%. The viability, T/C [22] was 78.4%, the viability, T/C [23] was 81.1% and the viability, T/C [24] was 58.9%. The viability, T/C [25] was 98.9%, the viability, T/C [26] was 87.4% and the viability, T/C [27] was 98.1%. The viability, T/C [28] was 90.3%, the viability, T/C [29] was 84.5% and the viability, T/C [30] was 59.1%. The viability, T/C [31] was 97.4%, the viability, T/C [32] was 96% and the viability, T/C [33] was 107%. For the same compound, the viability, T/C [34] was 102%, the viability, T/C [35] was 66.4% and the viability, T/C [36] was 54.6%.

`CCCS(=O)(=O)Nc1ccc(F)c(C(=O)c2c[nH]c3ncc(-c4ccc(Cl)cc4)cc23)c1F` + Nc1ccc(C#CCN(C(=O)Cc2ncc(C(F)(F)F)cc2C(F)(F)F)c2ccc(F)cc2)nn1 was tested, and the IC50 (second compound 0.0316 µM) was 7490 nM, the IC50 (second compound 0.1 µM) was 7280 nM and the IC50 (second compound 0.316 µM) was 7560 nM. For the same compound, the IC50 (second compound 1 µM) was over 10000 nM, the IC50 (second compound 3.16 µM) was 9530 nM and the IC50 (second compound 10 µM) was over 10000 nM. The viability, T/C [3] was 97.8%, the viability, T/C [4] was 118% and the viability, T/C [5] was 122%. For the same compound, the viability, T/C [6] was 98.3%, the viability, T/C (second compound 0.0316 µM, first compound 3.16 µM) was 71.5% and the viability, T/C (second compound 0.0316 µM, first compound 10 µM) was 42.8%. The viability, T/C [9] was 114%, the viability, T/C [10] was 98.7% and the viability, T/C [11] was 92.8%. For the same compound, the viability, T/C [12] was 96.5%, the viability, T/C (second compound 0.1 µM, first compound 3.16 µM) was 69.6% and the viability, T/C (second compound 0.1 µM, first compound 10 µM) was 41.7%. For the same compound, the viability, T/C [15] was 105%, the viability, T/C [16] was 101% and the viability, T/C [17] was 87.4%. For the same compound, the viability, T/C [18] was 78.6%, the viability, T/C (second compound 0.316 µM, first compound 3.16 µM) was 80.3% and the viability, T/C (second compound 0.316 µM, first compound 10 µM) was 40.6%. For the same compound, the viability, T/C [21] was 105%, the viability, T/C [22] was 81.6% and the viability, T/C [23] was 129%. For the same compound, the viability, T/C [24] was 76.2%, the viability, T/C (second compound 1 µM, first compound 3.16 µM) was 63.3% and the viability, T/C (second compound 1 µM, first compound 10 µM) was 49.4%. It also gave a viability, T/C [27] of 93.7%, a viability, T/C [28] of 92.1% and a viability, T/C [29] of 116%. The viability, T/C [30] was 94.2%, the viability, T/C (second compound 3.16 µM, first compound 3.16 µM) was 92.5% and the viability, T/C (second compound 3.16 µM, first compound 10 µM) was 47.9%. The viability, T/C [33] was 93.2%, the viability, T/C [34] was 103% and the viability, T/C [35] was 98.7%. For the same compound, the viability, T/C [36] was 96.8%, the viability, T/C (second compound 10 µM, first compound 3.16 µM) was 77.5% and the viability, T/C (second compound 10 µM, first compound 10 µM) was 59.2%.

For `CCc1c2c(nc3ccc(O)cc13)-c1cc3c(c(=O)n1C2)COC(=O)[C@]3(O)CC` + Nc1ccc(C#CCN(C(=O)Cc2ncc(C(F)(F)F)cc2C(F)(F)F)c2ccc(F)cc2)nn1, the IC50 (second compound 0.0316 µM) was 19.5 nM, the IC50 (second compound 0.1 µM) was 16 nM and the IC50 (second compound 0.316 µM) was 13.3 nM. It also gave an IC50 (second compound 1 µM) of 12.6 nM, an IC50 (second compound 3.16 µM) of 22.4 nM and an IC50 (second compound 10 µM) of 11.7 nM. It also gave a viability, T/C [1] of 63.1%, a viability, T/C [2] of 61.6% and a viability, T/C [3] of 41.2%. The viability, T/C [4] was 32.9%, the viability, T/C [5] was 25.2% and the viability, T/C [6] was 9.02%. The viability, T/C [7] was 61.2%, the viability, T/C [8] was 51.1% and the viability, T/C [9] was 44.6%. For the same compound, the viability, T/C [10] was 34.8%, the viability, T/C [11] was 30.4% and the viability, T/C [12] was 8.83%. The viability, T/C [13] was 66.6%, the viability, T/C [14] was 50% and the viability, T/C [15] was 38.6%. The viability, T/C [16] was 34%, the viability, T/C [17] was 23.9% and the viability, T/C [18] was 11.5%. The viability, T/C [19] was 70%, the viability, T/C [20] was 46.6% and the viability, T/C [21] was 41.3%. It also gave a viability, T/C [22] of 30.5%, a viability, T/C [23] of 23.4% and a viability, T/C [24] of 11.2%. For the same compound, the viability, T/C [25] was 59.3%, the viability, T/C [26] was 65.6% and the viability, T/C [27] was 39.4%. For the same compound, the viability, T/C [28] was 35.8%, the viability, T/C [29] was 30.9% and the viability, T/C [30] was 8.37%. It also gave a viability, T/C [31] of 57.4%, a viability, T/C [32] of 52.2% and a viability, T/C [33] of 41%. For the same compound, the viability, T/C [34] was 31.6%, the viability, T/C [35] was 28.3% and the viability, T/C [36] was 6.89%.
